Experiments:
NCI-H322M = assay: NCI60 five-dose screen, Non-small Cell Lung Cancer; assay type: cell-based; conditions: Homo sapiens, Non-small Cell Lung Cancer, five-dose screen, read-out: GI50
SNB-75 = assay: NCI60 five-dose screen, CNS Cancer; assay type: cell-based; conditions: Homo sapiens; SNB-75, CNS Cancer; five-dose screen; read-out: GI50
OVCAR-4 = assay: NCI60 five-dose screen, Ovarian Cancer; assay type: cell-based; conditions: Homo sapiens; OVCAR-4, Ovarian Cancer; five-dose screen; read-out: GI50
MALME-3M [1] = assay: NCI60 one-dose screen (10 μM), Melanoma; assay type: cell-based; conditions: Homo sapiens; 10 μM; MALME-3M, Melanoma; read-out: Growth percent rate
A549/ATCC = assay: NCI60 five-dose screen, Non-small Cell Lung Cancer; assay type: cell-based; conditions: Homo sapiens; A549/ATCC, Non-small Cell Lung Cancer; five-dose screen; read-out: GI50
CCRF-CEM = assay: NCI60 five-dose screen, Leukemia; assay type: cell-based; conditions: Homo sapiens, Leukemia, five-dose screen, read-out: GI50
KM12 [2] = assay: NCI60 five-dose screen, Colon Cancer; assay type: cell-based; conditions: Homo sapiens; KM12, Colon Cancer; five-dose screen; read-out: GI50
HS 578T = assay: NCI60 five-dose screen, Breast Cancer; assay type: cell-based; conditions: Homo sapiens; HS 578T, Breast Cancer; five-dose screen; read-out: GI50
OVCAR-3 = assay: NCI60 five-dose screen, Ovarian Cancer; assay type: cell-based; conditions: Homo sapiens; OVCAR-3, Ovarian Cancer; five-dose screen; read-out: GI50
SN12C = assay: NCI60 five-dose screen, Renal Cancer; assay type: cell-based; conditions: Homo sapiens, Renal Cancer, five-dose screen, read-out: GI50
UACC-62 = assay: NCI60 one-dose screen (10 μM), Melanoma; assay type: cell-based; conditions: Homo sapiens; 10 μM; UACC-62, Melanoma; read-out: Growth percent rate
LOX IMVI = assay: NCI60 one-dose screen (10 μM), Melanoma; assay type: cell-based, human; conditions: Homo sapiens; 10 μM; LOX IMVI, Melanoma; read-out: Growth percent rate
MALME-3M [3] = assay: NCI60 five-dose screen, Melanoma; assay type: cell-based; conditions: Homo sapiens; MALME-3M, Melanoma; five-dose screen; read-out: GI50
ACHN = assay: NCI60 five-dose screen, Renal Cancer; assay type: cell-based; conditions: Homo sapiens, Renal Cancer, five-dose screen, read-out: GI50
PC-3 [4] = assay: NCI60 five-dose screen, Prostate Cancer; assay type: cell-based; conditions: Homo sapiens; PC-3, Prostate Cancer; five-dose screen; read-out: GI50
HCC-2998 = assay: NCI60 five-dose screen, Colon Cancer; assay type: cell-based; conditions: Homo sapiens; HCC-2998, Colon Cancer; five-dose screen; read-out: GI50
SNB-19 = assay: NCI60 one-dose screen (10 μM), CNS Cancer; assay type: cell-based; conditions: Homo sapiens; 10 μM; SNB-19, CNS Cancer; read-out: Growth percent rate
SR [5] = assay: NCI60 five-dose screen, Leukemia; assay type: cell-based; conditions: Homo sapiens, Leukemia, five-dose screen, read-out: GI50
MCF7 = assay: NCI60 five-dose screen, Breast Cancer; assay type: cell-based; conditions: Homo sapiens; MCF7, Breast Cancer; five-dose screen; read-out: GI50
NCI-H460 = assay: NCI60 five-dose screen, Non-small Cell Lung Cancer; assay type: cell-based; conditions: Homo sapiens; NCI-H460, Non-small Cell Lung Cancer; five-dose screen; read-out: GI50
UACC-257 = assay: NCI60 five-dose screen, Melanoma; assay type: cell-based; conditions: Homo sapiens; UACC-257, Melanoma; five-dose screen; read-out: GI50
TK-10 [6] = assay: NCI60 one-dose screen (10 μM), Renal Cancer; assay type: cell-based; conditions: Homo sapiens; 10 μM; TK-10, Renal Cancer; read-out: Growth percent rate
PC-3 [7] = assay: NCI60 one-dose screen (10 μM), Prostate Cancer; assay type: cell-based; conditions: Homo sapiens; 10 μM; PC-3, Prostate Cancer; read-out: Growth percent rate
OVCAR-5 [8] = assay: NCI60 five-dose screen, Ovarian Cancer; assay type: cell-based; conditions: Homo sapiens; OVCAR-5, Ovarian Cancer; five-dose screen; read-out: GI50
NCI-H522 = assay: NCI60 five-dose screen, Non-small Cell Lung Cancer; assay type: cell-based; conditions: Homo sapiens; NCI-H522, Non-small Cell Lung Cancer; five-dose screen; read-out: GI50
TK-10 [9] = assay: NCI60 five-dose screen, Renal Cancer; assay type: cell-based; conditions: Homo sapiens; TK-10, Renal Cancer; five-dose screen; read-out: GI50
NCI/ADR-RES [10] = assay: NCI60 one-dose screen (10 μM), Ovarian Cancer; assay type: cell-based; conditions: Homo sapiens, 10 μM, Ovarian Cancer, read-out: Growth percent rate
786–0 = assay: NCI60 five-dose screen, Renal Cancer; assay type: cell-based; conditions: Homo sapiens; 786–0, Renal Cancer; five-dose screen; read-out: GI50
NCI-H226 = assay: NCI60 one-dose screen (10 μM), Non-small Cell Lung Cancer; assay type: cell-based; conditions: Homo sapiens; 10 μM; NCI-H226, Non-small Cell Lung Cancer; read-out: Growth percent rate
UO-31 [11] = assay: NCI60 five-dose screen, Renal Cancer; assay type: cell-based; conditions: Homo sapiens; UO-31, Renal Cancer; five-dose screen; read-out: GI50
SW-620 = assay: NCI60 five-dose screen, Colon Cancer; assay type: cell-based; conditions: Homo sapiens; SW-620, Colon Cancer; five-dose screen; read-out: GI50
SF-295 = assay: NCI60 one-dose screen (10 μM), CNS Cancer; assay type: cell-based; conditions: Homo sapiens; 10 μM; SF-295, CNS Cancer; read-out: Growth percent rate
SK-OV-3 = assay: NCI60 one-dose screen (10 μM), Ovarian Cancer; assay type: cell-based; conditions: Homo sapiens; 10 μM; SK-OV-3, Ovarian Cancer; read-out: Growth percent rate
KM12 [12] = assay: NCI60 one-dose screen (10 μM), Colon Cancer; assay type: cell-based, human; conditions: Homo sapiens; 10 μM; KM12, Colon Cancer; read-out: Growth percent rate
NCI/ADR-RES [13] = assay: NCI60 five-dose screen, Ovarian Cancer; assay type: cell-based; conditions: Homo sapiens, Ovarian Cancer, five-dose screen, read-out: GI50
MDA-MB-468 = assay: NCI60 one-dose screen (10 μM), Breast Cancer; assay type: cell-based; conditions: Homo sapiens; 10 μM; MDA-MB-468, Breast Cancer; read-out: Growth percent rate
IGROV1 = assay: NCI60 five-dose screen, Ovarian Cancer; assay type: cell-based; conditions: Homo sapiens, IGROV-1; IGROV1, Ovarian Cancer; five-dose screen; read-out: GI50
MOLT-4 = assay: NCI60 five-dose screen, Leukemia; assay type: cell-based; conditions: Homo sapiens; MOLT-4, Leukemia; five-dose screen; read-out: GI50
HOP-92 = assay: NCI60 one-dose screen (10 μM), Non-small Cell Lung Cancer; assay type: cell-based; conditions: Homo sapiens; 10 μM; HOP-92, Non-small Cell Lung Cancer; read-out: Growth percent rate
BT-549 = assay: NCI60 one-dose screen (10 μM), Breast Cancer; assay type: cell-based; conditions: Homo sapiens; 10 μM; BT-549, Breast Cancer; read-out: Growth percent rate
MDA-MB231ATCC = assay: NCI60 five-dose screen, Breast Cancer; assay type: cell-based; conditions: Homo sapiens, MDA-MB-231; MDA-MB231ATCC, Breast Cancer; five-dose screen; read-out: GI50
SR [14] = assay: NCI60 one-dose screen (10 μM), Leukemia; assay type: cell-based; conditions: Homo sapiens, 10 μM, Leukemia, read-out: Growth percent rate
OVCAR-5 [15] = assay: NCI60 one-dose screen (10 μM), Ovarian Cancer; assay type: cell-based; conditions: Homo sapiens; 10 μM; OVCAR-5, Ovarian Cancer; read-out: Growth percent rate
T-47D = assay: NCI60 one-dose screen (10 μM), Breast Cancer; assay type: cell-based; conditions: Homo sapiens, T47D; 10 μM; T-47D, Breast Cancer; read-out: Growth percent rate
UO-31 [16] = assay: NCI60 one-dose screen (10 μM), Renal Cancer; assay type: cell-based; conditions: Homo sapiens; 10 μM; UO-31, Renal Cancer; read-out: Growth percent rate
MDA-MB-231/ATCC = assay: NCI60 one-dose screen (10 μM), Breast Cancer; assay type: cell-based, human; conditions: Homo sapiens; 10 μM; MDA-MB-231/ATCC, Breast Cancer; read-out: Growth percent rate

CC[C@]12C=CCN3CC[C@@]4(c5ccc(OC)cc5N(C)[C@H]4[C@@](O)(C(=O)OC)[C@@H]1OC(=O)CCC(=O)N1CCN(C(c4ccc(F)cc4)c4ccc(F)cc4)CC1)[C@@H]32 [Compound 31]
GI50 (NCI-H322M): 4.99 µM
GI50 (SNB-75): 2.11 µM
GI50 (OVCAR-4): 1.62 µM
activity at 10 µM (MALME-3M [1]): -16.6%
GI50 (A549/ATCC): 2.67 µM
GI50 (CCRF-CEM): 2.11 µM
GI50 (KM12 [2]): 2.36 µM
GI50 (HS 578T): 1.74 µM
GI50 (OVCAR-3): 1.6 µM
GI50 (SN12C): 1.47 µM
activity at 10 µM (UACC-62): -84.3%
activity at 10 µM (LOX IMVI): -56%
GI50 (MALME-3M [3]): 2.2 µM
GI50 (ACHN): 2.06 µM
GI50 (PC-3 [4]): 1.86 µM
GI50 (HCC-2998): 1.24 µM
activity at 10 µM (SNB-19): 8.85%
GI50 (SR [5]): 1.63 µM
GI50 (MCF7): 1.74 µM
GI50 (NCI-H460): 1.93 µM
GI50 (UACC-257): 2.7 µM
activity at 10 µM (TK-10 [6]): -32.1%
activity at 10 µM (PC-3 [7]): -28.5%
GI50 (OVCAR-5 [8]): 2.18 µM
GI50 (NCI-H522): 2.04 µM
GI50 (TK-10 [9]): 2.57 µM
activity at 10 µM (NCI/ADR-RES [10]): -62.1%
GI50 (786–0): 2.47 µM
activity at 10 µM (NCI-H226): -32.4%
GI50 (UO-31 [11]): 2.32 µM
GI50 (SW-620): 2.27 µM
activity at 10 µM (SF-295): -61.1%
activity at 10 µM (SK-OV-3): -15.6%
activity at 10 µM (KM12 [12]): -50.8%
GI50 (NCI/ADR-RES [13]): 1.95 µM
activity at 10 µM (MDA-MB-468): -69.1%
GI50 (IGROV1): 2.5 µM
GI50 (MOLT-4): 1.35 µM
activity at 10 µM (HOP-92): -44.9%
activity at 10 µM (BT-549): -60.6%
GI50 (MDA-MB231ATCC): 3.02 µM

CCC12C=CCN3CCC4(c5cc(NC(=O)CN6CCN(C(c7ccc(F)cc7)c7ccc(F)cc7)CC6)c(OC)cc5N(C)C4C(O)(C(=O)OC)C1OC(C)=O)C32 (stereo not shown) [Compound 20]
GI50 (NCI-H322M): 12 µM
activity at 10 µM (SR [14]): 0.34%
GI50 (SNB-75): 1.82 µM
GI50 (OVCAR-4): 3.31 µM
activity at 10 µM (MALME-3M [1]): 0%
GI50 (A549/ATCC): 4.37 µM
activity at 10 µM (OVCAR-5 [15]): 66.9%
GI50 (CCRF-CEM): 2.88 µM
GI50 (KM12 [2]): 3.98 µM
GI50 (HS 578T): 5.89 µM
GI50 (OVCAR-3): 4.37 µM
GI50 (SN12C): 4.9 µM
activity at 10 µM (UACC-62): 28.5%
activity at 10 µM (T-47D): 10.2%
activity at 10 µM (LOX IMVI): -61%
GI50 (MALME-3M [3]): 8.13 µM
activity at 10 µM (UO-31 [16]): 27.2%
GI50 (ACHN): 4.9 µM
GI50 (PC-3 [4]): 4.47 µM
GI50 (HCC-2998): 3.89 µM
activity at 10 µM (SNB-19): 21.5%
GI50 (SR [5]): 2 µM
GI50 (MCF7): 2.95 µM
GI50 (NCI-H460): 3.16 µM
GI50 (UACC-257): 5.25 µM
activity at 10 µM (TK-10 [6]): 37.6%
GI50 (OVCAR-5 [8]): 3.55 µM
GI50 (NCI-H522): 10.2 µM
GI50 (TK-10 [9]): 7.59 µM
activity at 10 µM (NCI/ADR-RES [10]): 20.9%
activity at 10 µM (MDA-MB-231/ATCC): -4.47%
GI50 (786–0): 7.76 µM
activity at 10 µM (NCI-H226): 24.1%
GI50 (UO-31 [11]): 5.25 µM
GI50 (SW-620): 3.98 µM
activity at 10 µM (SF-295): 13.8%
activity at 10 µM (SK-OV-3): 45.4%
activity at 10 µM (KM12 [12]): 20.2%
GI50 (NCI/ADR-RES [13]): 4.47 µM
activity at 10 µM (MDA-MB-468): 10.9%
GI50 (IGROV1): 7.94 µM
GI50 (MOLT-4): 2.14 µM
activity at 10 µM (BT-549): -37.5%
GI50 (MDA-MB231ATCC): 9.12 µM

— article PMC11277489, “Novel Piperazine Derivatives of Vindoline as Anticancer Agents” (International Journal of Molecular Sciences, 2024)
